Test results reported in patent publication US5298652A, “N-substituted glycines, inhibitors of phospholipase A2” (Hoffmann-La Roche Inc., priority 1992, dated 1994).

Key:
[1] = biological target: T1, HSF-PLA2 (extracellular PLA2 obtained from human synovial fluid) (Homo sapiens, UniProt P14555); assay: Assay for inhibition of HSF-PLA2 in vitro; format: biochemical; conditions: read-out: % Inhib of HSF-PLA2; for inhibition at 5 µM: 5 μM test compound; for inhibition at 10 µM: 10 μM test compound
T1 construct: extracellular enzyme obtained from human synovial fluid; from tissue; host or cells: human synovial fluid (pooled)
T1 sequence (P14555 21-144): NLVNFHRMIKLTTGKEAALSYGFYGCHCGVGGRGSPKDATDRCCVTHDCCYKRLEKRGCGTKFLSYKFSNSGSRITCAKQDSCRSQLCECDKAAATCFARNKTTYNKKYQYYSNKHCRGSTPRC
Protocol: Assay for Inhibition of HSF-PLA2 In Vitro
The PLA2 used in this test is the extracellular enzyme obtained from human synovial fluid (HSF-PLA2).
The assay for HSF-PLA2 activity was a modification of the described method [Franson R., Dobrow R., Weiss, J., Elsbach P., and Weglick W. B., J. Lipid Res., 19, 18-23 (1978)] which was conducted using [1-^14 C]-oleate-labelled E. coli substrate in excess at a final concentration of 20,000 dpm/ml. This was equivalent to 18.2 mM of cell membrane phospholipid phosphorus and 2×10^9 autoclaved E. coli/ml. The optimal conditions which were developed for the assay of HSF-PLA2 inhibitors are summarized as follows. A total volume of 0.5 ml of reaction mixture typically had the following final composition: substrate (20,000 dpm/ml); enzyme (0.1% HSF, v/v); 2 mM CaCl2; 150 mM Na^+; 50 mM sodium HEPES buffer, pH 7.3; and 1% dimethyl sulfoxide (DMSO, used to solubilize test inhibitors) in the presence or absence of inhibitor. The reaction was initiated by the addition of HSF-PLA2 and duplicate samples of the mixture were incubated in 13×100 mm glass tubes with shaking for 30 minutes at 37° C. The reaction was terminated by the addition of 2.5 ml of chloroform-methanol (1 to 1.5, v/v). The extraction of lipids from the stopped reaction mixture was conducted by the further additions of 0.5 ml of chloroform and 1 ml of water with mixing. After centrifuging, the lower chloroform phase was transferred to smaller glass tubes and the solvent was evaporated to dryness with a nitrogen stream. The extracted lipid residue was redissolved in […] of a solution containing carrier oleic acid (0.2 mg/ml) in chloroform-methanol [9 to 1, v/v]). The whole lipid extract was applied to a preactivated (30 minutes at 110° C.) silica gel-impregnated glass fiber thin layer chromatography sheet (ITLC type SG sheet from Gelman Sciences Inc., Ann Arbor, Mich.) using hexane-acetic acid (100 to 1, v/v) as the developing solvent. This TLC system rapidly (6 minutes) resolved the enzymatically released product, ^14 C-oleic acid, from the unreacted ^14 C-phospholipid substrate. The unsaturated lipids were located on the chromatogram by a brief exposure to iodine vapor. The oleic acid zone (Rf value 0.95) and phospholipid zone (origin) were cut out, chopped into small pieces, shaken with 2 ml of ethanol-water (80 to 20, v/v) and 15 ml of Aquasol and counted for radio-activity. A control incubation of substrate in the absence of HSF-PLA2 was performed in each experiment. The PLA2 activity of the human synovial fluid was corrected for this small control value. […] The specific activity of PLA2 in the pooled human synovial fluid under the optimal assay conditions was 49.2 nmoles [1-^14 C]-oleic aid released hour^-1 mg^-1. The IC50 (μM concentration of test compound that produces 50% inhibition of PLA2 activity) was determined for each test compound.

[2] = system: croton oil-induced mouse ear edema; assay: Croton oil mouse ear edema test; format: in vivo, male CD-1 mice; conditions: 1 mg topical, coapplied with croton oil; ear punch weight at 6 hours
Protocol: Croton Oil Mouse Ear Edema Test
The croton oil-induced mouse ear edema test, a model of irritant-induced contact dermatitis, has been used for evaluation of the PLA2 inhibitors by the topical route of administration. This test was carried out as described in the following references: […]
Twenty five μl of a 1% croton oil solution [dissolved in a mixture of pyridine/water/diethyl ether at a ratio of 5/20/75 (croton oil vehicle)] are applied to the outer side of the right ear of 3-4 week old male CD-1 mice (8 animals per group). The test compounds are dissolved directly in the 1% croton oil solution at various concentrations and coapplied. Control animals receive 25 μl of croton oil vehicle on the right ear. Biopsy punches are removed at 6 hours from the right ear of the animals using a 6 mm skin trephine (Roboz, Washington, D.C.) and the wet weight of the ear punches is determined. The weight of the biopsy punches is a measure of ear inflammation, primarily edema. The data are expressed as percent inhibition relative to control groups.
Statistical analysis of the mean edema values of the control versus the treated groups is performed using Student's t-test. The significance of changes from mean value for vehicle-treated animals is as follows (*p<0.05, **p<0.01, ***p<0.005, ns/not significant).

[3] = system: carrageenan-induced paw edema; assay: Rat carrageenan paw edema; format: in vivo, Lewis rats; conditions: for % Inhib of Carrageenan Paw Edema 2 hr 30 mg/kg ip: 1 hr prior to carrageenan
Protocol: Rat Carrageenan Paw Edema
Representative compounds of the invention were tested in rat carrageenan-induced paw edema to determine their ability to inhibit this acute inflammatory response. Test compounds were administered intraperitoneally or orally to groups of seven Lewis rats (~200 gm) 1 hr prior to carrageenan administration. The test compounds were dissolved in dimethyl sulfoxide for intraperitoneal administration and dissolved or suspended in Labrafil […] for oral administration. At 0 hour, 0.1 mL of 1% carrageenan dissolved in pyrogen free […] was injected subplanetary into the right hind paw to elicit the inflammatory response. The volume (in mL) of the right hind paw was measured by immersion of the paw to the level of the lateral malleolus in an aqueous plethysmometer immediately prior to the injection of carrageenan and then at 1, 2 and 4 hr after carrageenan injection. The paw edema was calculated by subtracting the zero time reading from the readings taken after injection. The percent change of the edema volume from the vehicle treated control was calculated to determine the activity of the test compound. Statistical analysis of the mean paw edema values of the control versus the treated groups was performed using Student's t-test.

[4] = system: adjuvant arthritis induced by Freunds complete adjuvant; conditions: dose 30 mg/kp ip
Protocol: Representative compounds of the invention were tested in the standard adjuvant arthritis model in rats, induced by Freunds complete adjuvant, as described by C.

[5] = system: TPA-induced mouse ear edema; assay: TPA induced mouse ear edema test; format: in vivo, male CD-1 mice; conditions: for % Inhib of TPA Mouse Ear Edema (1 mg) / % Inhib of Myeloperoxidase Mouse Ear Edema (1 mg): 1 mg topical
Protocol: TPA Induced Mouse Ear Edema Test
The TPA-induced mouse ear edema test, a model of irritant-induced contact dermatitis is described in the following reference: J. M. Young, B. M. Wagner and D. A. Spires, J. Invest. Dermatology 80, 48-52 (1983).
For this test, 10 μl of 12-O-tetradecanoylphorbol-13-acetate (TPA), dissolved in a vehicle of pyridine: water: diethylether (20:5:75), was applied to the outside of the right ear of 3-4 week old male CD-1 mice (8 animals per group). The test compounds were dissolved in the same vehicle and 10 μl was applied to the inside of the same ear 30 minutes prior to the application of TPA. Ear punches (6 mm) were removed at 6 hours after TPA application, weighed and assayed for myeloperoxidase (MPO) activity as described in the following reference: P. P. Bradley, D. A. Priebat, R. D. Christensen and G. Rothstein, J. Invest. Dermatology 78, 206-209 (1982). The wet weight of the ear biopsy punches is a measure of the ear edema and the level of MPO activity in the ear punches is an indicator of neutrophil infiltration. The data are expressed as percent inhibition in drug-treatedanimals relative to the control group. Table II sets forth the percentage inhibition of edema by representative compounds of the invention in this test. Table III sets forth the percentage inhibition of myeloperoxidase by representative compounds of the invention in this test.

[6] = 30 minutes prior to TPA, ear punch weight at 6 hours
[7] = MPO activity in ear punches 6 hours after TPA

## CCCCCCCCCCOc1cc(OCCCCCCCCCC)cc(C(=O)N(CC(=O)O)CC(=O)O)c1 [Example 11, N-(Carboxymethyl)-N-[3,5-bis(decyloxy)benzoyl]glycine]
[1]; 6 μM test compound
  inhibition at 6 µM: 50%
[2]
  % Inhib of Croton Oil Mouse Ear Edema (1 mg): 70%
[3]; 50 mg/kg
  % Inhib of Carrageenan Paw Edema 2 hr: 50%

## CCCCCCCCCCCCCCCCCCOc1cc(OCCOCCOCCOCC)cc(C(=O)N(CC(=O)O)CC(=O)O)c1 [Example 48, N-(carboxymethyl)-N-[3-[2-[2-(2-ethoxyethoxy)ethoxy]ethoxy]-(5-octadecyloxy)benzoyl]glycine]
[1]
  inhibition at 5 µM: 36%
[2]
  % Inhib of Croton Oil Mouse Ear Edema (1 mg): 19%
[3]
  % Inhib of Carrageenan Paw Edema 2 hr 30 mg/kg ip: 76%

## CCCCCCCCCCCCCC(=O)Nc1cc(NC(=O)CCCCCCCCCCCCC)cc(C(=O)N(CC(=O)O)CC(=O)O)c1 [Example 56, N-(Carboxymethyl)-N-[3,5-bis(1-oxotetradecylamino)benzoyl]glycine]
[3]; 100 mg/kg po
  % Inhib of Carrageenan Paw Edema 2 hr: 26%

## CCCCCCCCCCCCCCCCCCOc1ccc(O)c(C(=O)N(CC(=O)O)CC(=O)O)c1 [Example 62, N-(carboxymethyl)-N-[2-hydroxy-5-(octadecyloxy)benzoyl]glycine]
[1]; 5.8 μM test compound
  inhibition at 5.8 µM: 50%
[2]
  % Inhib of Croton Oil Mouse Ear Edema (1 mg): 65%
[3]
  % Inhib of Carrageenan Paw Edema 2 hr 30 mg/kg ip: 57%
[4]
  Change in Paw Volume in ml, Treated: -0.11 ± 0.06 mL

## CCCCCCCCCCOc1cc(OCCCCCCCCCC)cc(C(=O)C(=O)N(CC(=O)O)CC(=O)O)c1 [Example 73, N-(Carboxymethyl)-N-[[3,5-bis(decyloxy)phenyl]-1,2-dioxoethyl]glycine]
[1]
  inhibition at 5 µM: 62%
[3]
  % Inhib of Carrageenan Paw Edema 2 hr 30 mg/kg ip: 56%

## CCCCCCCCCCCCCCCCCCOc1ccc(OCc2ccccc2)c(C(=O)N(CC(=O)O)CC(=O)O)c1 [Example 81, N-(Carboxymethyl)-N-[5-(octadecyloxy)-2-(phenylmethoxy)benzoyl]glycine]
[1]
  inhibition at 5 µM: 42%
[2]
  % Inhib of Croton Oil Mouse Ear Edema (1 mg): 74%
[5]; 0.3 mg topical, 30 minutes prior to TPA, ear punch weight at 6 hours
  % Inhib of TPA Mouse Ear Edema: 60%
[5]; 0.3 mg topical, MPO activity in ear punches 6 hours after TPA
  % Inhib of Myeloperoxidase Mouse Ear Edema: 75%

## CCCCCCCCCCCCCCOc1ccc(OCc2ccccc2)c(C(=O)N(CC(=O)O)CC(=O)O)c1 [Example 86, N-(Carboxymethyl)-N-[5-(tetradecyloxy)-2-(phenylmethoxy)benzoyl]glycine]
[1]
  inhibition at 10 µM: 70%
[5]; [6]
  % Inhib of TPA Mouse Ear Edema (1 mg): 47%
[5]; [7]
  % Inhib of Myeloperoxidase Mouse Ear Edema (1 mg): 63%

## CCCCCCCCCCOc1ccc(OCc2ccccc2)c(C(=O)N(CC(=O)O)CC(=O)O)c1 [Example 91, N-(Carboxymethyl)-N-[5-(decyloxy)-2-(phenylmethoxy)benzoyl]glycine]
[1]
  inhibition at 10 µM: 70%
[5]; [6]
  % Inhib of TPA Mouse Ear Edema (1 mg): 59%
[5]; [7]
  % Inhib of Myeloperoxidase Mouse Ear Edema (1 mg): 78%

## CCCCCCCCCCCCCCCCCCOc1ccc(OCCCc2ccccc2)c(C(=O)N(CC(=O)O)CC(=O)O)c1 [Example 95, N-(Carboxymethyl)-N-[5-(octadecyloxy)-2-(3-phenylpropoxy)benzoyl]glycine]
[1]
  inhibition at 10 µM: 71%
[5]; [6]
  % Inhib of TPA Mouse Ear Edema (1 mg): 55%

## CCCCCCCCCCCCCCCCCCOc1ccc(OCCCOc2ccc(OCc3ccccc3)cc2)c(C(=O)N(CC(=O)O)CC(=O)O)c1 [Example 99, N-(Carboxymethyl)-N-[5-(octadecyloxy)-2-[3-[4-(phenylmethoxy)phenoxy]propoxy]benzoyl]glycine]
[1]
  inhibition at 10 µM: 86%
[5]; [6]
  % Inhib of TPA Mouse Ear Edema (1 mg): 50%

## CCCCCCCCCCCCCCCCCCOc1ccc(OCCCOc2ccc(O)cc2)c(C(=O)N(CC(=O)O)CC(=O)O)c1 [Example 100]
[1]
  inhibition at 10 µM: 77%
[5]; [6]
  % Inhib of TPA Mouse Ear Edema (1 mg): 65%

## O=C(O)CN(CC(=O)O)C(=O)c1cc(OCCCCCCOc2ccc(-c3ccccc3)cc2)ccc1OCc1ccccc1 [Example 105, N-[5-[[6-([1,1'-biphenyl]-4-yloxy)hexyl]oxy]-2-(phenylmethoxy)benzoyl]-N-(carboxymethyl)glycine]
[1]
  inhibition at 10 µM: 38%
[5]; [6]
  % Inhib of TPA Mouse Ear Edema (1 mg): 67%

## O=C(O)CN(CC(=O)O)C(=O)c1cc(OCCCCCCCCCCCCOc2ccccc2)ccc1OCc1ccccc1 [Example 110, N-(Carboxymethyl)-N-[5-[(12-phenoxydodecyl)oxy]-2-(phenylmethoxy)benzoyl]glycine]
[1]
  inhibition at 10 µM: 61%
[5]; [6]
  % Inhib of TPA Mouse Ear Edema (1 mg): 57%

## O=C(O)CN(CC(=O)O)C(=O)C(=O)c1ccc(OCCCCCCCCCCCCOc2ccccc2)cc1 [Example 114, N-(Carboxymethyl)-N-[1,2-dioxo-2-[4-[(12-phenoxydodecyl)oxy]phenyl]ethyl]glycine]
[1]
  inhibition at 10 µM: 35%
[5]; [6]
  % Inhib of TPA Mouse Ear Edema (1 mg): 37%
